According to patent publication US20100196521A1, “Formulation for the treatment of hypoxia and related disorders” (priority 2009, published 2010):

How the values were obtained:
[1] = system: methemoglobinemia model mice (sodium nitrite); assay: Sodium nitrite methemoglobinemia model, survival duration; format: in vivo, NIH mice; conditions: male quasi; for Survival Duration: observed 90 min; for Prolonged Percentage: vs negative control
Description: This test was designed according to the relevant provisions of The Management of Medicine Registration issued by the State Food and Drug Administration (SFDA) of the People's Republic of China, and The Assemble of Guiding Principle of Pre-clinical Research on New Drugs (in Western Medicine) from the Bureau of Drug Administration, Ministry of Public Health, People's Republic of China. Five test groups were designed for this test, namely the negative control group (A), the positive control medicine group (B), and three groups administrated with the test item at the high (C), medium (D), and low (E) dosage levels. SPF class NIH mice were randomly distributed into 10-12 pieces (male quasi) in each group. The design of experiment was described in Table 5.
In establishing the methemoglobinemia model, a 2% sodium nitrite was injected into abdomen of the mice (male mice: 240 mg/kg, 12 mL/kg; female mice: 260 mg/kg, 13 mL/kg). Stopwatch was immediately started to record time and simultaneously, vegetable oil or the test item was applied to the mice of the respective group. Mice in the positive control group I (group B-I) were administered with Nimodipine through gastric gavage an hour before model was established, while those in the positive control group II were administered Nimodipine through gastric gavage immediately upon the setting up of the model. […]

[2] = system: decapitated mice (acute cerebral ischemic hypoxia); assay: Global cerebral ischemia (decapitation method), formal test; format: in vivo, NIH mice; conditions: group B: 2.0 mg/kg hypodermic injection once a day for 2 days
Description: Five test groups were designed for this test, namely the negative control group (A), the positive control medicine group (B), and three groups administrated with the test item at the high (C), medium (D), and low (E) dosage levels. SPF class NIH mice were randomly distributed into 14 pieces in each group. The design of experiment was described in Table 9. Mice in negative control group (A) were topically applied with vegetable oil, whereas those in positive control group (B) were administrated with Nimodipine by hypodermic injection once a day for 2 consecutive days. Mice in groups (C), (D), and (E) received the test item through skin administration once a day for 7 consecutive days. 60 minutes after the final administration of the test item and vegetable oil to the mice of the corresponding groups, and 30 minutes after the final administration of Nimodipine to the mice of the positive medicine control group, the heads of mice were rapidly severed from the back of ear root with a pair of sharp scissors (decapitation method). The gasping duration and gasping frequency were immediately recorded with a stopwatch The results are shown as follows: […]

[3] = system: cerebral ischemic hypoxia mice; assay: Cerebral circulatory disturbance hypoxia (common carotid artery and vagus ligation), survival; format: in vivo, NIH mice; conditions: group B: 2.0 mg/kg hypodermic injection once a day for 5 days
Description: (§1) Five test groups were designed for this test, namely the negative control group (A), the positive control medicine group (B), and three groups administrated with the test item at the high (C), medium (D), and low (E) dosage levels. SPF class NIH mice were randomly distributed into 12 to 14 pieces in each group. The design of experiment was described in Table 15.
Mice in negative control group (A) were topically applied with vegetable oil, whereas those in positive control group (B) were administrated with Nimodipine by hypodermic injection. Mice in groups (C), (D), and (E) received the test item through skin administration. All the five groups received the corresponding item once a day for 5 consecutive days. 50 minutes after the final administration of the test item, and 30 minutes after the final administration of Nimodipine, the mice were given an intraperitoneal injection of Urethane (8%, 0.8 g/kg.bw, 10 mL/kg.bw) as anesthetics. The mice then underwent a separation of the left and right common carotid artery as well as the vagus, and were separately ligated with a No. 4 suture. Survival duration for the mice were immediately recorded with a stopwatch, with results as follows: […]

[4] = system: sodium nitrite induced hypoxia model mice; assay: Study on blood pH and blood hypoxia (sodium nitrite induced hypoxia animal model); format: in vivo, SD mice; conditions: 10 days after
Experimental: In this study regarding oxygen carrying ability of red blood cells, the test item was the formulation as described in Mixture 3 listed in Table 1 (the formulation). First of all, healthy SD mice were fed with sodium nitrite (17 mg/kg) by gastric gavage for 7 consecutive days to induce the hypoxia animal model. The mice were then randomly distributed into 8 groups: (A) normal mice blank control group, (B) normal mice applied with the formulation group (82.5 μL/kg), (C) model mice applied with vitamin C (62.5 mg/kg) control group, (D) model mice applied with vitamin E (104 mg/kg) control group, (E) model mice applied with vegetable oil (82.5 μL/kg) control group, (F) model mice applied with high dose of the formulation (330 μL/kg), (G) model mice applied with medium dose of the formulation (165 μL/kg), (H) model mice applied with low dose of the formulation (82.5 μL/kg). There were 12 mice for each group. On the 7th day of hypoxia model induction, the formulation was applied topically on the mice in the formulation groups (B, F, G and H), and equal amount of vegetable oil was also topically applied on the mice in the group (E). Vitamins C and E were administrated by gastric gavage to mice in groups (C) and (D) respectively. 10 days after the application of the corresponding items, blood samples were taken in which blood pH, arterial oxygen partial pressure (pO2), and blood oxygen were tested, and the results are as listed below: […]

[5] = system: sodium nitrite induced memory consolidated handicap mice; assay: Memory consolidated handicap model, water maze test; format: in vivo, NIH mice; conditions: group B: 1.04 mg/kg intramuscular injection
Description: […], a cerebral hypoxic agent, was used to establish this memory consolidated handicap model. Due to its strong oxidation property, it could convert low value iron in the hemoglobin into high value iron and thus affects the hemoglobin to lose its anti-oxidative ability, resulting in Methemoglobinemia disease. Brain tissue is the most sensitive tissue to hypoxia and it would be injured once it experienced memory consolidated handicap. Therefore, in the establishment of this model, the applying of […] would affect the space recognition ability of the mice. This test was designed according to the relevant provisions of The Management of Medicine Registration issued by the State Food and Drug Administration (SFDA) of the People's Republic of China, and The Assemble of Guiding Principle of Pre-clinical Research on New Drugs (in Western Medicine) from the Bureau of Drug Administration, Ministry of Public Health, People's Republic of China. Five test groups were designed for this test, namely the negative control group (A), the positive control medicine group (B), and three groups administrated with the test item at the high (C), medium (D), and low (E) dosage levels. […] The design of experiment was described in Table 11. Each group of mice was continuously trained for 5 days, once in the morning and once in the afternoon, for 60 seconds in each training session. Before the training session on the afternoon of the 5th day, sodium nitrite was administered at dose level of 160 mg/kg to the mice through hypodermic injection to induce the mice to experience memory consolidated handicap symptom. 30 minutes after medication, the water maze test was carried out. The aforesaid test was then repeated on the following morning.

[6] = system: mice in low-pressure hypoxic environment; assay: Hypobaric hypoxia survival test; format: in vivo, NIH mice; conditions: group B: 26 mg/kg gastric gavage, male quasi
Experimental: as §1, with “12” for “12 to 14”, “13.” for “15.”
One hour after administrating the positive control medicine, and 30 minutes after applying the test item or the negative control in the corresponding groups, the mice (6 mice/batch, 2 batches/group) were put in consecutive order into the vacuum drier connected with a suction (built in soda lime to absorb CO2 and water). The suction process was started until the air pressure dropped to a certain negative pressure (Male mouse: 580 mmHg; female mouse: 600 mmHg). Then, stopwatch was used to record the survival duration and the number of survivals in each group within 60 minutes.

[7] = group B-I: 62 mg/kg gastric gavage an hour before model
[8] = group B-II: 62 mg/kg gastric gavage immediately upon model
[9] = group D: hypoxia model mice, 104 mg/kg gastric gavage
[10] = group C: hypoxia model mice, 62.5 mg/kg gastric gavage

Question: How did the “Survival Duration” value [1, 7] turn out when `COCCOC(=O)C1=C(C)NC(C)=C(C(=O)OC(C)C)C1c1cccc([N+](=O)[O-])c1` (stereo not shown) [Nimodipine] was run?
Answer: Its value is 48.44 ± 21.36 min.

Question: What about the “Prolonged Percentage” value [1, 7] of the same compound?
Answer: The value was 56.26%.

Question: What about the “Survival Duration” value [1, 8] of the same compound?
Answer: The value was 39.10 ± 17.30 min.

Question: What about the “Prolonged Percentage” value [1, 8] of the same compound?
Answer: Its value is 26.24%.

Question: What about the “Gasping Duration, Time” value [2] of the same compound?
Answer: The value was 24.6 ± 4.6 s.

Question: What about the “Gasping Frequency, Times” value [2] of the same compound?
Answer: Its value is 14.5 ± 3.6 Times.

Question: What about the “Gasping Duration, Extension Rate” value ([2]; vs negative control) of the same compound?
Answer: Its value is 28.6%.

Question: What about the “Gasping Frequency, Increment Rate” value ([2]; vs negative control) of the same compound?
Answer: The value was 25.6%.

Question: And the “Survival Duration” value [3]?
Answer: The value was 55.4 ± 15.2 min.

Question: What about the “Prolonged Percentage” value ([3]; vs negative control) of the same compound?
Answer: Its value is 1224.3%.

Question: For vitamin E, which Blood oxygen [4, 9] is on record?
Answer: The Blood oxygen was 94.0 ± 2.1 %.

Question: And the “Blood pH” value [4, 9]?
Answer: The value was 7.455 ± 0.049.

Question: And the Oxygen partial pressure [4, 9]?
Answer: Its Oxygen partial pressure is 10.76 ± 2.14 kPa.

Question: What does the source list for `O=C1O[C@H]([C@@H](O)CO)C(O)=C1O` [Vitamin C, vitamin C]?
Answer: Blood oxygen [4, 10]: 93.6 ± 1.3 %; Blood pH [4, 10]: 7.420 ± 0.036; Oxygen partial pressure [4, 10]: 10.51 ± 0.96 kPa; Time to Reach the Platform ([5]; Day 5, Afternoon (after sodium nitrite 160 mg/kg)): 46.9 ± 15.5 s; Time to Reach the Platform ([5]; Day 5, Morning (before sodium nitrite)): 42.0 ± 24.3 s; Time to Reach the Platform ([5]; Day 6, Morning): 41.7 ± 21.1 s

Question: Which “Prolonged Percentage” value ([6]; vs negative control) does the source give for `CC(C)NCC(O)COc1cccc2ccccc12` (stereo not shown) [Propranolol] here?
Answer: The value was 108.4%.

Question: And the “Survival Duration” value ([6]; within 60 minutes)?
Answer: Its value is 50.40 ± 16.33 min.

Question: What about the “Survival Percentage” value ([6]; within 60 minutes) of the same compound?
Answer: Its value is 41.7%.
